Earlier results as cited in publication PMC8198792, “Prediction of Anticancer Peptides with High Efficacy and Low Toxicity by Hybrid Model Based on 3D Structure of Peptides” (International Journal of Molecular Sciences, 2021).
Where two headings read alike, the source gives them in different places.

Experiments:
[1] = test system: many types of cells, including non-cancer cells; conditions: toxic peptides dataset TD2; class label 1 (toxic, positive set) or 0 (non-toxic AMP, negative set); ref SATPdb; cited from earlier work
cancer cell lines = test system: cancer cell lines; design: method as in 6 sources, ref CancerPPD [45] and SATPdb ||| ref CancerPPD/SATPdb ||| ref CancerPPD, SATPdb, Swissprot (PDB) ||| ref CancerPPD/SATPdb/Swissprot(PDB) ||| ref CancerPPD / SATPdb ||| ...; conditions: 0 = non-ACP, cited from earlier work
Text: Supplement ijms-22-05630-s001.zip/ACPs(seguence).xlsx, sheet "D1" | column: Activity || Supplement ijms-22-05630-s001.zip/ACPs(seguence).xlsx, sheet "D2" | column: Activity || Supplement ijms-22-05630-s001.zip/ACPs(seguence).xlsx, sheet "D3" | column: Activity || (+ 2 further places)

[2] = ACPs dataset D3 (sheet "D3"), label 1 = ACP, ref CancerPPD/SATPdb
[3] = ACPs dataset D4 (sheet "D4"), label 1 = ACP, ref CancerPPD / SATPdb
[4] = ACPs dataset D5, sheet "D5", label 1 = ACP, ref CancerPPD [45] and SATPdb
[5] = ACPs dataset D3 (supplement sheet "D3"), 1 = ACP, ref CancerPPD [45] and SATPdb

Substance	Activity [1]	Activity (cancer cell lines; [2])	Activity (cancer cell lines; [3])	Activity (cancer cell lines; [4])	Activity (cancer cell lines; [5])
FIGAILPAIAGLVGGLINR [satpdb12061]	1	0	0	0	
GIGGALLSVGKLALKGLANVLADKFAN [satpdb14012]	1	0	0	0	
GLWEKIKEKANELVSGIVEGVK [satpdb12905]	0	0	0	0	
FLPILINLIHKGLL [satpdb14138]	0	0	0	0	
ILGPVLGLVGNALGGLIKKL [satpdb12428]	1	0	0	0	
FLPLLVGAISSILPKIF [satpdb12883]	1	0	0	0	
ILGAILPLVSGLLSNKL [satpdb12884]	0	0	0	0	
GLFSVLGSVAKHLLPHVAPIIAEKL [satpdb13391]	0	0	0	0	
VOLFPWWNQY [satpdb13995]	0	0	0	0	
FLPLVGKILSGLI [satpdb11230]	0		0	0	0
VIPIVSGLLSSLL [satpdb12918]	0	0	0	0	
FLPFLAKILTGVL [satpdb14646]	0	0	0	0	
GVLSAFKNALPGIMKIIV [satpdb14593]	0	0	0	0	
GLWSKIKDVAAAAGKAALGAVNEAL [satpdb12483]	0	0	0	0	
FLPIAGKLLSGLSGLL [satpdb12964]	0	0	0	0	
FASLLGKALKALAKQ [satpdb10678]	0		0	0	0
FKIKPGKVLDKFGKIVGKVLKQLKKVS [satpdb13509]	1	0	0	0	
GRLQAFLAKMKEIAAQTL [satpdb13649]	0	0	0	0	
KWKSFIKKLTSAAKKVVTTAKPLISS [satpdb10912]	0		0	0	0
FIGAVAGLLSKIF [satpdb10850]	1		0	0	0
FLSLIPHAINAVSAIAKHS [satpdb10076]	0		0	0	0
KLGFENFLVKALKTVMHVPTSPLL [satpdb10107]	1		0	0	0
GLWSNIKTAGKEAAKAALKAAGKAALGAVTDAV [satpdb12078]	0	0	0	0	
RWKIFKKIEKVGRNVRDGIIKAGPAVAVVGQAATVVK [satpdb12319]	0	0	0	0	
FLSLIPHAINAVSALANHG [satpdb14661]	0	0	0	0	
GWRLLLKKAEVKTVGKLALKHYL [satpdb14772]	0	0	0	0	

Substance	Activity [1]	Activity (cancer cell lines; [2])	Activity (cancer cell lines; [3])	Activity (cancer cell lines; [4])	Activity (cancer cell lines; [5])
AILTTLANWARKFL [satpdb12672]	0	0	0	0	
FLPLLASLFSGLF [satpdb11101]	0		0	0	0
ILPLVGNLLNDLL [satpdb10023]	0		0	0	0
GILDVAKTLVGKLRNVLGI [satpdb10523]	0		0	0	0
GMASKAGSVLGKVAKVALKAAL [satpdb13618]	0	0	0	0	
VOLFPVOLFP [satpdb12868]	0	0	0	0	
FLGALWNVAKSVF [satpdb13946]	0	0	0	0	
FLSTLWNAAKSIF [satpdb12345]	1	0	0	0	
GLLDALSGILGL [satpdb12939]	0	0	0	0	
GFGSVLGKALKFGANLL [satpdb10971]	0		0	0	0
ACNFQSCWATCQAQHSIYFRRAFCDRSQCKCVFVRG [satpdb14312]	0	0	0	0	
LRPAILVRIK [satpdb13588]	0	0	0	0	
VKLfPVKLfP [satpdb12197]	1	0	0	0	
GILDAIKAFANALG [satpdb15517]	0				
GVIIDTLKGAAKTVAAELLRKAHCKLTNSC [satpdb16783]	1				
GLFDIIKKIAESF [satpdb11488]	0				
LLPIVGNLLNSLL [satpdb24565]	1				
FLPVILPVIGKLLSGIL [satpdb17809]	1				
GKWMSLLKHILK [satpdb20336]	1				
GFMKYIGPLIPHAVKAISDLI [satpdb17997]	1				
GIGGVLLGAGKATLKGLAKVLAEKYAN [satpdb26873]	1				
SLSRFLSFLKIVYPPAF [satpdb15130]	0				
FLPAALAGIGGILGKLF [satpdb24046]	1				
GLFDIIKKVASVIGGL [satpdb15856]	0				
GFRKFHKFWA [satpdb14908]	0				
GFIFHIIKGLFHAGKMIHGLV [satpdb15908]	0				

Substance	Activity [1]	Activity (cancer cell lines; [2])	Activity (cancer cell lines; [3])	Activity (cancer cell lines; [4])	Activity (cancer cell lines; [5])
FLPLVLGALSGILPKIL [satpdb22972]	1				
IIGHLIKTALGMLGL [satpdb15972]	0				
LGPALITRKPLKGKP [satpdb17072]	0				
GLKDIFKAGLGSLVKNIAAHVAN [satpdb11475]	0				
FFPIVGKRLYGLL [satpdb15392]	0				
IFGAILPLALGALKNLIK [satpdb27411]	1				
GLPVCGETCVGGTCNTPGCTCSWPVCTRN [satpdb19932]	1				
NILNTIINLAKKIL [satpdb16074]	0				
RRRPRPPYLPRPRPPPFFPPRLPPRIPPGFPPRFPPRFP [satpdb15417]	0				
GRRRRSVQWCAVSQPEATKCFQWQRNMRKVRGPPVSCIKRDSPIQCIQA [satpdb10374]	0				
LLGMIPLAISAISSLSKL [satpdb20037]	1				
LALALKHALHKALLLAKHLAHKLALA [satpdb16273]	0				
ALYLAIRRR [satpdb16531]	0				
NFLGTLINLAKKIM [satpdb14927]	0				
FIGALLRPALKLLAGK [satpdb27126]	1				
LKLSPKTKDTLKKVLKGAIKGAIAIASMA [satpdb13200]	1				
FIGLLISAGKAIHDLIRRRH [satpdb26817]	1				
GVVTDLLNTAGGLLGNLVGSLSG [satpdb21886]	1				
FLPFLIPALTSLISSL [satpdb15275]	0				
FVQWFSKFLGRIL [satpdb16211]	1				
RFRLPFRRPPIRIHPPPFYPPFRRFL [satpdb12266]	1				
TKPTLLGLPLGAGPAAGPGKR [satpdb17447]	0				
KILRGVSKKIMRTFLRRILTGKK [satpdb23198]	1				
GLVTGLLKTAGKLLGDLFGSLSG [satpdb20565]	1				
GVLDIFKDAAKQILAHAAEKQI [satpdb12665]	1				
FFPLVLGALGSILPKIF [satpdb25475]	1				
